Measurements as given in publication PMC11489721 (Communications Chemistry, 2024).
pEC50, pIC50, pKd, pKi: −log10 of the molar value. Where a name gives a salt, the structure may show the parent alone. Read-outs that look alike come from different tables or passages of the source.

Key:
[1] = target: T1, heterodimeric receptor (T1R2/T1R3), presumed VFD2 binding site (Homo sapiens, UniProt Q7RTX0+Q8TE23); test: Competition binding with [3H]-Rebaudioside B as radioligand; conditions: for Competitive inhibition with RebB: radioligand [3H]-Rebaudioside B; for Ki (mM): radiolabeled ligand RebB, VFD2 binding, Table 5
T1 sequence (Q8TE23 20-839): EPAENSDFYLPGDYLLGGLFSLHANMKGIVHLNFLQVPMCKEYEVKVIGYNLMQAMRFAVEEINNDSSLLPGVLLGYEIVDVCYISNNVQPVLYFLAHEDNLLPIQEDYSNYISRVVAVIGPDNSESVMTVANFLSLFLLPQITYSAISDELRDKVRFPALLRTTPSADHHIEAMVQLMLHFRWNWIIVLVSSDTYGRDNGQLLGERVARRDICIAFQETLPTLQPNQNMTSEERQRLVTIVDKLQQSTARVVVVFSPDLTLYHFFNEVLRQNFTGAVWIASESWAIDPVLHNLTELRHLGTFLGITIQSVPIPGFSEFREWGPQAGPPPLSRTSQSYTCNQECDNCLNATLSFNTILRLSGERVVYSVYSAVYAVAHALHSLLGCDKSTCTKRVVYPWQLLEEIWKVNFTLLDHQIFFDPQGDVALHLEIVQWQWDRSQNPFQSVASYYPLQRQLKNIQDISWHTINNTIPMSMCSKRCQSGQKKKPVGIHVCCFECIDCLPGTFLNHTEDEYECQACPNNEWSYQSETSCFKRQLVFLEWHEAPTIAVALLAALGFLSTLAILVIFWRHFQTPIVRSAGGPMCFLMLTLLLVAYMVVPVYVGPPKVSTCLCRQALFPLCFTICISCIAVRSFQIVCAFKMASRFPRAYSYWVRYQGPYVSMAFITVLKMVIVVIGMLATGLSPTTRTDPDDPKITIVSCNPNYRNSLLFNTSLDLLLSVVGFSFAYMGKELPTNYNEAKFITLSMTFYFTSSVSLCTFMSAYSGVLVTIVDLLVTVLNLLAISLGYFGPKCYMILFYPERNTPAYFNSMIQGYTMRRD
T1 sequence (Q7RTX0 21-852): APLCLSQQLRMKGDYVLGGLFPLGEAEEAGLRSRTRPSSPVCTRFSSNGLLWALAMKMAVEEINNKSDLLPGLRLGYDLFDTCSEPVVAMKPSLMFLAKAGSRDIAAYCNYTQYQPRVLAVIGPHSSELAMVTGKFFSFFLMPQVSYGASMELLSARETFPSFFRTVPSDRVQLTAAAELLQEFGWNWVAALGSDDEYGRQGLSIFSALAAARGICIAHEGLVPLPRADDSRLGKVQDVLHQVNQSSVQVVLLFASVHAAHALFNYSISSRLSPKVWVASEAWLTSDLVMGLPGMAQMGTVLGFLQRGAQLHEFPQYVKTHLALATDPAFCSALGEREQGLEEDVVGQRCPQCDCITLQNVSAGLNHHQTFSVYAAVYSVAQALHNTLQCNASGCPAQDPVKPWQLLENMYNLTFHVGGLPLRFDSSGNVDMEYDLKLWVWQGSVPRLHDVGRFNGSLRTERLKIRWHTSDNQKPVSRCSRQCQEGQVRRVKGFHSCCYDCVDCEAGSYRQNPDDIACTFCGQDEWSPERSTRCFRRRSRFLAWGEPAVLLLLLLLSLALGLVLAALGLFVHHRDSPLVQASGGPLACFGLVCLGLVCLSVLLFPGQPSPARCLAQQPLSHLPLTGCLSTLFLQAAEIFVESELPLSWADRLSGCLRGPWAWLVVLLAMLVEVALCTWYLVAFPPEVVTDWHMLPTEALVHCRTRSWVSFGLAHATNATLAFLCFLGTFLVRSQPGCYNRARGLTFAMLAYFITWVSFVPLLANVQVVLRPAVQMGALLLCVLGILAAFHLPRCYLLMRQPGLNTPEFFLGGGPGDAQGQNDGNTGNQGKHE

[2] = target: T2, heterodimeric receptor (T1R2/T1R3), TMD2 binding site (Homo sapiens, UniProt Q7RTX0+Q8TE23); test: Competition binding with [3H]-Perillartine as radioligand; conditions: for Ki (mM): radiolabeled ligand perillartine, TMD2 binding, Table 6; for Competitive inhibition with perillartine: radioligand [3H]-Perillartine
T2 sequence (Q8TE23 20-839): T1 sequence (Q8TE23 20-839)
T2 sequence (Q7RTX0 21-852): T1 sequence (Q7RTX0 21-852)

[3] = target: T3, heterodimeric receptor (T1R2/T1R3) (Homo sapiens, UniProt Q7RTX0+Q8TE23); test: Effect of GTP and GDP on radioligand binding; conditions: for Inhibition of [3H]-Lactisole binding: radioligand [3H]-lactisole
T3 sequence (Q8TE23 20-839): T1 sequence (Q8TE23 20-839)
T3 sequence (Q7RTX0 21-852): T1 sequence (Q7RTX0 21-852)

[4] = tested on: human T1R2/T1R3 heterodimers; conditions: transiently transfected, fluorescent calcium biosensor; cited from earlier work
[5] = target: human T1R2/T1R3 sweet taste receptor; conditions: HEK293 stably expressing T1R2/T1R3, FLIPR calcium mobilization; cited from earlier work
human T1R2 = conditions: human T1R2, intrinsic fluorescence; cited from earlier work
[6] = target: human sweet taste receptor; conditions: DMR assay; cited from earlier work
[7] = target: human sweet taste receptor; conditions: FLIPR assay; cited from earlier work
[8] = cited from earlier work
[9] = target: T4, human T1R2/T1R3 heterodimer sweet taste receptors (Homo sapiens, UniProt Q7RTX0+Q8TE23); test: FLOWER label-free binding to stabilized receptor on microtoroid
T4 sequence (Q8TE23 20-839): T1 sequence (Q8TE23 20-839)
T4 sequence (Q7RTX0 21-852): T1 sequence (Q7RTX0 21-852)

[10] = target: T5, heterodimeric receptor (T1R2/T1R3), TMD3 binding site (Homo sapiens, UniProt Q7RTX0+Q8TE23); test: Competition binding with [3H]-lactisole as radioligand; conditions: for Competitive inhibition with lactisole: radioligand [3H]-lactisole
T5 sequence (Q8TE23 20-839): T1 sequence (Q8TE23 20-839)
T5 sequence (Q7RTX0 21-852): T1 sequence (Q7RTX0 21-852)

[11] = target: T6, heterodimeric receptor (T1R2/T1R3), VFD2 and VFD3 (Homo sapiens, UniProt Q7RTX0+Q8TE23); test: Kinetic binding of [14C]-sucrose, taste bud cell membranes
T6 sequence (Q8TE23 20-839): T1 sequence (Q8TE23 20-839)
T6 sequence (Q7RTX0 21-852): T1 sequence (Q7RTX0 21-852)

bovine taste bud cells = conditions: cited from earlier work
[12] = target: T7, heterodimeric receptor (T1R2/T1R3), TMD2 site (Homo sapiens, UniProt Q7RTX0+Q8TE23); test: Kinetic binding of [3H]-Perillartine, taste bud cell membranes
T7 sequence (Q8TE23 20-839): T1 sequence (Q8TE23 20-839)
T7 sequence (Q7RTX0 21-852): T1 sequence (Q7RTX0 21-852)

[13] = target: T8, heterodimeric receptor (T1R2/T1R3), presumed VFD2 site (Homo sapiens, UniProt Q7RTX0+Q8TE23); test: Kinetic binding of [3H]-Rebaudioside B, taste bud cell membranes
T8 sequence (Q8TE23 20-839): T1 sequence (Q8TE23 20-839)
T8 sequence (Q7RTX0 21-852): T1 sequence (Q7RTX0 21-852)

[14] = read-out: binding constant Kd, TMD3 open (+C20), 10 µM C20
[15] = read-out: binding constant Kd, TMD3 open (No C20)
[16] = from kinetic binding, ratio koff/kon

N=C(N)NC(=O)c1nc(Cl)c(N)nc1N [Amiloride, amiloride HCL]
pKi [1]: 2.87
Competitive inhibition with RebB [1]: positive inhibition
Ki (mM) [2]: Ambiguous
Competitive inhibition with perillartine [2]: did not show inhibition

Nc1nc2c(ncn2[C@@H]2O[C@H](COP(=O)(O)OP(=O)(O)O)[C@@H](O)[C@H]2O)c(=O)[nH]1 [GDP, guanosine diphosphate]
Inhibition of [3H]-Lactisole binding [3]: No inhibition
pIC50 ([3]; read-out: IC50, inhibition of Rebaudioside B binding, radioligand [3H]-Rebaudioside B): 2.67

Nc1nc2c(ncn2[C@@H]2O[C@H](COP(=O)(O)OP(=O)(O)OP(=O)(O)O)[C@@H](O)[C@H]2O)c(=O)[nH]1 [GTP, guanosine triphosphate]
pIC50 ([3]; IC50, inhibition of Rebaudioside B binding, radioligand [3H]-Rebaudioside B): 2.04
pIC50 ([3]; IC50, inhibition of perillartine binding, radioligand [3H]-Perillartine): 1.88
Inhibition of [3H]-Lactisole binding [3]: No inhibition

C=C(C)[C@@H]1CC=C(/C=N/O)CC1 [Perillartine]
pEC50 [4]: 5.60
pEC50 [5]: 5.84
pKd (human T1R2): 3.43

C=C1C[C@@]23CC[C@H]4[C@@](C)(CCC[C@@]4(C)C(=O)O[C@@H]4O[C@H](CO)[C@@H](O)[C@H](O)[C@H]4O)[C@@H]2CC[C@]1(O[C@@H]1O[C@H](CO)[C@@H](O)[C@H](O[C@@H]2O[C@H](CO)[C@@H](O)[C@H](O)[C@H]2O)[C@H]1O[C@@H]1O[C@H](CO)[C@@H](O)[C@H](O)[C@H]1O)C3 [RebA]
pEC50 [6]: 4.24
pEC50 [5]: 4.84
pEC50 [7]: 4.54
Sweetness at 300 ppm [8]: 5.90

C=C1C[C@@]23CC[C@H]4[C@@](C)(CCC[C@@]4(C)C(=O)O[C@@H]4O[C@H](CO)[C@@H](O)[C@H](O)[C@H]4O[C@@H]4O[C@H](CO)[C@@H](O)[C@H](O)[C@H]4O)[C@@H]2CC[C@]1(O[C@@H]1O[C@H](CO)[C@@H](O)[C@H](O[C@@H]2O[C@H](CO)[C@@H](O)[C@H](O)[C@H]2O)[C@H]1O[C@@H]1O[C@H](CO)[C@@H](O)[C@H](O)[C@H]1O)C3 [RebD, Rebaudioside D]
Hill slope nH ([9]; TMD3 open (No C20)): 0.22
pKd [9, 14]: 10.34
pKd [9, 15]: 8.55
Sweetness at 300 ppm [8]: 6.15

C=C1C[C@@]23CC[C@H]4[C@@](C)(CCC[C@@]4(C)C(=O)O[C@@H]4O[C@H](CO)[C@@H](O)[C@H](O[C@@H]5O[C@H](CO)[C@@H](O)[C@H](O)[C@H]5O)[C@H]4O[C@@H]4O[C@H](CO)[C@@H](O)[C@H](O)[C@H]4O)[C@@H]2CC[C@]1(O[C@@H]1O[C@H](CO)[C@@H](O)[C@H](O[C@@H]2O[C@H](CO)[C@@H](O)[C@H](O)[C@H]2O)[C@H]1O[C@@H]1O[C@H](CO)[C@@H](O)[C@H](O)[C@H]1O)C3 [RebM, Rebaudioside M]
pKi ([10]; radiolabeled ligand lactisole, TMD3 binding, Table 4): 1.93
Competitive inhibition with lactisole [10]: positive inhibition
Hill slope nH ([9]; TMD2 open (+C20)): 0.75
Hill slope nH ([9]; TMD2 open (No C20)): 0.30
Hill slope nH ([9]; TMD3 open (No C20)): 0.55
pKd ([9]; read-out: binding constant Kd, TMD2 open (+C20), 10 µM C20): 9.55
pKd [9, 14]: 8.59
pKd [9, 15]: 7.66
pEC50 [5]: 4.53
Ki (mM) [1]: Ambiguous
Competitive inhibition with RebB [1]: ambiguous binding inhibition
Ki (mM) [2]: Ambiguous
Sweetness at 300 ppm [8]: 6.55

C=C1C[C@@]23CC[C@H]4[C@@](C)(CCC[C@@]4(C)C(=O)O[C@@H]4O[C@H](CO)[C@@H](O)[C@H](O)[C@H]4O)[C@@H]2CC[C@]1(O[C@@H]1O[C@H](CO)[C@@H](O)[C@H](O)[C@H]1O)C3 [Rubu, Rubusoside]
Hill slope nH ([9]; TMD2 open (No C20)): 0.36
Hill slope nH ([9]; TMD3 open (No C20)): 0.20
pKd ([9]; binding constant Kd, TMD2 open (No C20)): 5.62
pKd ([9]; binding constant Kd, TMD3 open (+C20), 10 µM C20): 7.59
pKd ([9]; binding constant Kd, TMD3 open (No C20)): 5.52
Sweetness at 300 ppm [8]: 3.87

CC(C)Oc1ccc(NC(=S)NCc2ccc[nH]2)cc1 [S819, 1-((1H-pyrrol-2-yl)methyl)-3-(4-isopropoxyphenyl)thiourea]
pEC50 [6]: 6.15
Competitive inhibition with lactisole [10]: do not compete
Ki (mM) [1]: Ambiguous
Competitive inhibition with RebB [1]: did not show strong inhibition
Ki (mM) [2]: Ambiguous
Competitive inhibition with perillartine [2]: did not show inhibition
pEC50 [7]: 7.15

OC[C@H]1O[C@@](CO)(O[C@H]2O[C@H](CO)[C@@H](O)[C@H](O)[C@H]2O)[C@@H](O)[C@@H]1O [[^14C]-sucrose, [^14C]-Sucrose]
kon ([11]; [14C]-sucrose radioligand): 15.06 M⁻¹ min⁻¹
koff ([11]; dissociation by excess cold sucrose at 60 min): 0.1863 min⁻¹
pKd [11, 16]: 1.91

OC[C@H]1OC(O)[C@H](O)[C@@H](O)[C@@H]1O (stereo partly shown) [glucose]
pKd (bovine taste bud cells): 2.47

OC[C@H]1O[C@@](CO)(O[C@H]2O[C@H](CO)[C@@H](O)[C@H](O)[C@H]2O)[C@@H](O)[C@@H]1O [sucrose]
pKd (bovine taste bud cells): 2.96

Rebaudioside B [RebB]
Sweetness at 300 ppm [8]: 5.20

[^3H]-Perillartine [[^3H]-Perrilartine]
kon ([12]; [3H]-Perillartine radioligand): 184288 M⁻¹ min⁻¹
koff ([12]; dissociation by excess cold Perillartine at 60 min): 0.5337 min⁻¹
pKd [12, 16]: 5.54

[^3H]-Rebaudioside B
kon ([13]; [3H]-Rebaudioside B radioligand, room temperature): 91.82 M⁻¹ min⁻¹
koff ([13]; dissociation by 1000-fold excess cold Rebaudioside B at 60 min): 0.5321 min⁻¹
pKd [13, 16]: 2.24
